# Measured values as given in US20020110830A1, “VEGF responsive cell-based assay for determining VEGF bioactivity” (priority 2001, published 2002).
# Molecular target: T1, FLK-1 VEGF receptor (Mus musculus, UniProt P35918)
# T1 construct: expressed in transfected cells; host or cells: HeLa (HLR-ELK-1, Stratagene) stably co-transfected with the FLK-1 expression vector; clone #5
# Test: VEGF responsive luciferase assay in VEGF-receptor stable transfected HLR-ELK-1 cell line (clone #5)
# Format: cell-based
# Details: FIG. 9
# Text: The assay of the present invention utilizes a stable VEGF responsive cell line which comprises HeLa cells which have been stably transfected with a reporter vector having an expressible reporter element and a DNA binding element disposed adjacent thereto. Preferably, the reporter vector includes a gene encoding a detectable gene product which is disposed downstream of a basic promoter element, preferably a TATA box, which is joined to the binding element which is preferably a GAL4 binding element. […]
# In general, utilizing known signal transduction relationships and/or pathways, a sample to be assayed for VEGF bioactivity is placed in a container containing the stable cell line as described above. […] Activated FLK-1, which is a known VEGF receptor, then activates MAP kinase (Kroll and Waltenberger, J. Biol. Chem., 1997:272:32521-32527; Doanes et. al., Biochem. Biophys. Res. Comm., 1999;255:545-548. The activated MAP kinase phosphorylates the fusion trans-activation protein (GAL4 DNA binding domain [dbd] fused with ELK-1). The phosphorylated fusion protein binds to the GAL4 DNA binding site of the reported vector activating luciferase expression. Luciferase expression can be detected utilizing techniques well-known in the art. The presence or expression of luciferase indicates VEGF activity in the sample. […]
# T1 sequence (P35918 20-1345): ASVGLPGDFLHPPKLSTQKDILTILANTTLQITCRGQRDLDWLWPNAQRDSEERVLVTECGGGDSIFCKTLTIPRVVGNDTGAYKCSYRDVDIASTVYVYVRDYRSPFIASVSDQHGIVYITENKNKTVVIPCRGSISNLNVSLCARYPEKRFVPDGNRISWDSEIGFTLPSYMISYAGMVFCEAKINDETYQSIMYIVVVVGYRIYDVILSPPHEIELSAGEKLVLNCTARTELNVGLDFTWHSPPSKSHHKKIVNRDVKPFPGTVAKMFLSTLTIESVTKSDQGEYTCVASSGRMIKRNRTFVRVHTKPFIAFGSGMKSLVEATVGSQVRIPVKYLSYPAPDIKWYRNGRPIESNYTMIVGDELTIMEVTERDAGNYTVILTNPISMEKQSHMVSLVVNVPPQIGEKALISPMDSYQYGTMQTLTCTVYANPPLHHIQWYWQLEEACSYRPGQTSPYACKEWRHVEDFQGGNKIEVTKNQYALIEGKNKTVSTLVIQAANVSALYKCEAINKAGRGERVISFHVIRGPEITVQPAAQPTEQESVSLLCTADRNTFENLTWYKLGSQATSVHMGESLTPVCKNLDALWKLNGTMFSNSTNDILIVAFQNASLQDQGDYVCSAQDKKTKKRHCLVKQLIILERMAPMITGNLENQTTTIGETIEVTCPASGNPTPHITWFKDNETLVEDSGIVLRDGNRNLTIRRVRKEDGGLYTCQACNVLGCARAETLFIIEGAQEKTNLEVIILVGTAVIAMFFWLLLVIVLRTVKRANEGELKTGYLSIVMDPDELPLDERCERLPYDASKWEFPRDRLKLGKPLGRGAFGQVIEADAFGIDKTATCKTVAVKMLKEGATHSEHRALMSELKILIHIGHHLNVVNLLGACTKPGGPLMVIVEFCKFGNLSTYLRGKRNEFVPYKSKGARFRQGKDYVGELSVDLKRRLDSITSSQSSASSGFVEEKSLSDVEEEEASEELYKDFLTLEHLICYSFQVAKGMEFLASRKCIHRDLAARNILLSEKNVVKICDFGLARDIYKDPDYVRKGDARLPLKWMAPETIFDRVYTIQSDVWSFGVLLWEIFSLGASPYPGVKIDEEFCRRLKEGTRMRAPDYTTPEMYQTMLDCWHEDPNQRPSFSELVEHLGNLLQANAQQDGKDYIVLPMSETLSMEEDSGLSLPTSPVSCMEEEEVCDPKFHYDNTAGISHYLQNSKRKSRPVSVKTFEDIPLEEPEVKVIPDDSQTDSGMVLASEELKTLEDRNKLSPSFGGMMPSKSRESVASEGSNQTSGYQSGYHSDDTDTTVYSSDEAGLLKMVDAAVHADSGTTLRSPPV
compound,measurement,value
COc1cc2c(Nc3ccc(Br)cc3F)ncnc2cc1OCCn1ccnn1 [ZD4190],effect on VEGF stimulation of luciferase expression,affected luciferase expression in a dose-response manner
